Laboratory results as given in patent publication US12252701B2, “Chimeric antigen receptor T cell therapy” (KITE PHARMA, INC., priority 2020, dated 2025).

Legend:
[1] = test system: Nalm-6 luc; test: CAR-T cell killing assay (luciferase viability of tumor cells)
[2] = test system: phospho-STAT panel (pSTAT3/4/5), CD3+ T cells; test: phospho-STAT induction by IL-6, MesoScale Discovery phospho-STAT panel; format: cell-based, human; conditions: for pSTAT3 / pSTAT4 / pSTAT5: CD3+ T cells
Procedure, shortened: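 CD19 CAR-T cells, PBMC or CD3+ T cells, rested overnight, were stimulated at 700,000 cells/well with 100 ng/ml IL6 plus compound for 20 minutes at 37° C. Cells were lysed in Tris buffer and pSTAT3/4/5 measured by MSD electrochemiluminescence immunoassay.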

[3] = in vitro; conditions: human
Procedure: 96-well plates were coated with 100 μl of KIP-1 antibody per well at 1 μg/ml in PBS and plates were incubated at 4° C. overnight. CAR-T cells were thawed and were rested in ImmunoCult expansion medium and incubated overnight at 37° C. Cells were then counted and resuspended at 2 million cells/ml and seed at 200,000 cells per well in 100 μl of expansion medium with 10 ng/ml recombinant IL2. For groups treated with KIP-1, 100 μl of expansion medium were added with 2× final drug dilutions. For CD3/CD28 treated groups, 100 μl of expansion media were added with 2× final drug dilutions containing 25 μl/ml of CD3/CD28 T cell activator from StemCell Technologies. Cells were then incubated at 37° C. After 4 days, cells were counted and diluted 1 to 8-fold in expansion media and then transferred to a 24-well plate. Cell counts were repeated at day 7 and transferred to T25 flasks. On day 11, all cells were harvested and counted.

[4] = test system: monocyte-derived macrophages; test: Macrophage differentiation and M1/M2 polarization (surface markers by flow cytometry); format: cell-based, human
Procedure: Monocytes were prepared from healthy donor PBMCs by negative selection for CD14+ monocytes using MACS (these cryopreserved monocytes provided by […], Alameda, CA) at >95% purity. Monocytes were differentiated into macrophages (M0) using traditional methods. In brief, 1×10^6 monocytes were plated into 12-well plate wells in a total volume of 2 mL macrophage culture media (MCM) (ImmunoCult™-SF Macrophage medium, Stem Cell Technologies) containing 50 ng/ml M-CSF and cultured for 6 days at 37° C./5% CO2. On day 2 of differentiation, cultures were replenished with fresh media and M-CSF. On day 6, a portion of the wells containing differentiated macrophages were replenished with 2 ml of fresh MCM containing 50 ng/ml M-CSF, 100 ng/ml LPS, 20 ng/ml IFNg and cultured for another 48 hours to polarize the macrophage to an M1 macrophage phenotype. Also on day 6, another portion of the wells containing differentiated macrophages were replenished with 2 ml of fresh R10 containing 50 ng/ml M-CSF and 20 ng/ml IL-4 and cultured for another 48 hours to polarize the macrophages to M2 macrophage phenotype. On day 8, all putative polarized macrophages were assessed for M1 and M2-specific surface markers using relevant M1/M2 immunophenotyping panels and flow cytometry. The cell surface markers used to assess monocytes, M0, M1 and M2 macrophage phenotypes included CD14, CD32, CD38, CD80, CD86, CD68, CD163, CD200R1, CD204, CD206, CD209, and HLA-DR.

[5] = test system: Nalm6 cells; test: Serial killing assay, T-cell (CD4, CD8) and Nalm6 cell counts by flow cytometry; format: cell-based, human
Procedure: T-cell counts (CD4 and CD8) were assessed by flow cytometry.
Nalm6 cells were assessed by flow cytometry.
T-cell counts (CD4 and CD8) and Nalm6 cells were assessed by flow cytometry.

[6] = E:T ratio of 1:1, dose titration

What does the source list for O=C(Nc1nc2cccc(-c3ccc(CN4CCS(=O)(=O)CC4)cc3)n2n1)C1CC1 [filgotinib]?
Mean tumor cell death (%) ([1]; E:T ratio 1:1, dose 250 nM): 96.89%; Mean tumor cell death (%) ([1]; E:T ratio 1:1, dose 500 nM): 97.54%; Mean tumor cell death (%) ([1]; E:T ratio 1:1, dose 1000 nM): 92.04%; Mean tumor cell death (%) ([1]; E:T ratio 1:3, dose 250 nM): 55.79%; Mean tumor cell death (%) ([1]; E:T ratio 1:3, dose 500 nM): 48.50%; Mean tumor cell death (%) ([1]; E:T ratio 1:3, dose 1000 nM): 35.36%; Mean tumor cell death (%) ([1]; E:T ratio 1:9, dose 250 nM): 20.47%; Mean tumor cell death (%) ([1]; E:T ratio 1:9, dose 500 nM): 14.82%; Mean tumor cell death (%) ([1]; E:T ratio 1:9, dose 1000 nM): 9.49%; pSTAT3 ([2]; 100 ng/ml IL-6 + drug 10 uM, 20 min, MSD signal (No stim. 689, IL-6 alone 33641)): 2169; pSTAT4 ([2]; 100 ng/ml IL-6 + drug 10 uM, 20 min, MSD signal (No stim. 1964, IL-6 alone 15405)): 2121; pSTAT5 ([2]; 100 ng/ml IL-6 + drug 10 uM, 20 min, MSD signal (No stim. 9210, IL-6 alone 17743)): 1610; pSTAT3 ([2]; IL-6 + drug 0.125 uM, MSD signal (No stim. 689, IL-6 alone 33641)): 23255; pSTAT4 ([2]; IL-6 + drug 0.125 uM, MSD signal (No stim. 1964, IL-6 alone 15405)): 9977; pSTAT5 ([2]; IL-6 + drug 0.125 uM, MSD signal (No stim. 9210, IL-6 alone 17743)): 10484; pSTAT3 ([2]; IL-6 + drug 0.5 uM, MSD signal (No stim. 689, IL-6 alone 33641)): 15242; pSTAT4 ([2]; IL-6 + drug 0.5 uM, MSD signal (No stim. 1964, IL-6 alone 15405)): 5570; pSTAT5 ([2]; IL-6 + drug 0.5 uM, MSD signal (No stim. 9210, IL-6 alone 17743)): 5170; pSTAT3 ([2]; IL-6 + drug 1 uM, MSD signal (No stim. 689, IL-6 alone 33641)): 11163; pSTAT4 ([2]; IL-6 + drug 1 uM, MSD signal (No stim. 1964, IL-6 alone 15405)): 4642; pSTAT5 ([2]; IL-6 + drug 1 uM, MSD signal (No stim. 9210, IL-6 alone 17743)): 3679; pSTAT3 ([2]; IL-6 + drug 5 uM, MSD signal (No stim. 689, IL-6 alone 33641)): 2667; pSTAT4 ([2]; IL-6 + drug 5 uM, MSD signal (No stim. 1964, IL-6 alone 15405)): 2172; pSTAT5 ([2]; IL-6 + drug 5 uM, MSD signal (No stim. 9210, IL-6 alone 17743)): 1797; effect on phosphorylated-STAT-1, STAT-3 and STAT-5 levels ([2]; IL-6 stimulation 100 ng/ml, 20 minutes, 10 μM to 0.125 μM): reduction of phosphorylated-STAT-1, STAT-3 and STAT-5 levels in a dose-responsive manner; pSTAT3 ([2]; lower dose titration, IL-6 + drug 3.125 nM, MSD signal (No stim. 123, IL-6 alone 5767)): 4968; pSTAT4 ([2]; lower dose titration, IL-6 + drug 3.125 nM, MSD signal (No stim. 281, IL-6 alone 3624)): 3059; pSTAT5 ([2]; lower dose titration, IL-6 + drug 3.125 nM, MSD signal (No stim. 324, IL-6 alone 2352)): 2812; pSTAT3 ([2]; lower dose titration, IL-6 + drug 6.25 nM, MSD signal (No stim. 123, IL-6 alone 5767)): 6740; pSTAT4 ([2]; lower dose titration, IL-6 + drug 6.25 nM, MSD signal (No stim. 281, IL-6 alone 3624)): 4324; pSTAT5 ([2]; lower dose titration, IL-6 + drug 6.25 nM, MSD signal (No stim. 324, IL-6 alone 2352)): 2724; pSTAT3 ([2]; lower dose titration, IL-6 + drug 12.5 nM, MSD signal (No stim. 123, IL-6 alone 5767)): 6547; pSTAT4 ([2]; lower dose titration, IL-6 + drug 12.5 nM, MSD signal (No stim. 281, IL-6 alone 3624)): 3479; pSTAT5 ([2]; lower dose titration, IL-6 + drug 12.5 nM, MSD signal (No stim. 324, IL-6 alone 2352)): 2253; pSTAT3 ([2]; lower dose titration, IL-6 + drug 25 nM, MSD signal (No stim. 123, IL-6 alone 5767)): 5737; pSTAT4 ([2]; lower dose titration, IL-6 + drug 25 nM, MSD signal (No stim. 281, IL-6 alone 3624)): 3452; pSTAT5 ([2]; lower dose titration, IL-6 + drug 25 nM, MSD signal (No stim. 324, IL-6 alone 2352)): 2020; pSTAT3 ([2]; lower dose titration, IL-6 + drug 50 nM, MSD signal (No stim. 123, IL-6 alone 5767)): 6248; pSTAT4 ([2]; lower dose titration, IL-6 + drug 50 nM, MSD signal (No stim. 281, IL-6 alone 3624)): 3208; pSTAT5 ([2]; lower dose titration, IL-6 + drug 50 nM, MSD signal (No stim. 324, IL-6 alone 2352)): 1951; pSTAT3 ([2]; lower dose titration, IL-6 + drug 100 nM, MSD signal (No stim. 123, IL-6 alone 5767)): 5441; pSTAT4 ([2]; lower dose titration, IL-6 + drug 100 nM, MSD signal (No stim. 281, IL-6 alone 3624)): 2047; pSTAT5 ([2]; lower dose titration, IL-6 + drug 100 nM, MSD signal (No stim. 324, IL-6 alone 2352)): 1246; viability at 0 day, 500 nM [3]: 75%; viability at 0 day, 1000 nM [3]: 75%; viability at 4 day, 500 nM [3]: 61.1%; viability at 4 day, 1000 nM [3]: 59.9%; viability at 8 day, 500 nM [3]: 78.9%; viability at 8 day, 1000 nM [3]: 85.1%; viability at 12 day, 500 nM [3]: 91.8%; viability at 12 day, 1000 nM [3]: 87.7%; inhibition of an M2 polarized phenotype ([4]; 10 μM, compared to no drug/normal M2 polarization culture conditions): stronger inhibition of an M2 polarized phenotype than Tofacitinib; CD209 surface expression in M2 polarized macrophage cultures ([4]; 10 μM, compared to normal M2 polarization culture conditions): No reduction; influence on inhibiting M2 polarization by period of use ([4]; 10 μM, during 6-day differentiation versus only during M2 polarization): stronger influence on inhibiting M2 polarization when used during the 6-day macrophage differentiation; inhibiting the formation of an M2 polarized phenotype ([4]; 10 μM, used during both macrophage differentiation and M2 polarization): even stronger; skewing of macrophage phenotype amidst M2 polarizing conditions (M1 markers CD38 and HLA-DR) ([4]; separate experiment): skewed macrophages away from M2 towards M1 phenotype; persistence of T-cells (CD4 and CD8 counts) [5, 6]: Improved persistence; serial killing assessed by Nalm6 cells (flow cytometry) [5, 6]: enhance serial killing in a dose-dependent manner; impact on T-cell counts and Nalm6 cell counts ([5]; E:T ratio of 1:3, dose titration): not impacted
